In ChEMBL document CHEMBL4811238, “Identification of N-phenyl-2-(phenylsulfonyl)acetamides/propanamides as new SLC-0111 analogues: Synthesis and evaluation of the carbonic anhydrase inhibitory activities” (Eur J Med Chem, 2021):
Calls of active or inactive are those of the source. No cut-off for these calls is given here.

Experiments:
Carbonic anhydrase 9 = Carbonic anhydrase 9 (Homo sapiens, UniProt Q16790)
Description: Inhibition of recombinant human CA9 pre-incubated for 15 mins measured by phenol red dye based stopped flow CO2 hydration assay

HCT-116 [1] = assay: Antiproliferative activity against human HCT-116 cells after 48 hrs under hypoxic condition by MTT assay; assay type: functional, cell-based; conditions: HCT-116, 48 h
MCF7 = assay: Antiproliferative activity against human MCF7 cells after 48 hrs under hypoxic condition by MTT assay; assay type: functional, cell-based; conditions: MCF7, 48 h
HCT-116 [2] = assay: Induction of apoptosis in human HCT116 cells assessed as early apoptotic cells after 24 hrs by Annexin-V-FITC/PI-staining based flow cytometry (reference value: 0.59%); assay type: functional
HCT-116 [3] = assay: Induction of cell cycle arrest in human HCT116 cells assessed as cell accumulation at S phase at IC50 concentration after 24 hrs by propidium iodide staining based flow cytometry analysis; assay type: functional
HCT-116 [4] = assay: Induction of cell cycle arrest in human HCT116 cells assessed as cell accumulation at sub-G1 phase at IC50 concentration after 24 hrs by propidium iodide staining based flow cytometry analysis; assay type: functional
HCT-116 [5] = assay: Induction of apoptosis in human HCT116 cells assessed as late apoptotic cells after 24 hrs by Annexin-V-FITC/PI-staining based flow cytometry (reference value: 0.22%); assay type: functional
HCT-116 [6] = assay: Induction of apoptosis in human HCT116 cells assessed as necrotic cells after 24 hrs by Annexin-V-FITC/PI-staining based flow cytometry (reference value: 1.01%); assay type: functional
Carbonic anhydrase 1 = Carbonic anhydrase 1 (Homo sapiens, UniProt P00915); assay: Inhibition of recombinant human CA1 pre-incubated for 15 mins measured by phenol red dye based stopped flow CO2 hydration assay
Carbonic anhydrase 2 = Carbonic anhydrase 2 (Homo sapiens, UniProt P00918)
Description: Inhibition of recombinant human CA2 pre-incubated for 15 mins measured by phenol red dye based stopped flow CO2 hydration assay

Carbonic anhydrase 12 = Carbonic anhydrase 12 (Homo sapiens, UniProt O43570); assay: Inhibition of recombinant human CA12 pre-incubated for 15 mins measured by phenol red dye based stopped flow CO2 hydration assay
Sequence of Carbonic anhydrase 12 (O43570 whole entry): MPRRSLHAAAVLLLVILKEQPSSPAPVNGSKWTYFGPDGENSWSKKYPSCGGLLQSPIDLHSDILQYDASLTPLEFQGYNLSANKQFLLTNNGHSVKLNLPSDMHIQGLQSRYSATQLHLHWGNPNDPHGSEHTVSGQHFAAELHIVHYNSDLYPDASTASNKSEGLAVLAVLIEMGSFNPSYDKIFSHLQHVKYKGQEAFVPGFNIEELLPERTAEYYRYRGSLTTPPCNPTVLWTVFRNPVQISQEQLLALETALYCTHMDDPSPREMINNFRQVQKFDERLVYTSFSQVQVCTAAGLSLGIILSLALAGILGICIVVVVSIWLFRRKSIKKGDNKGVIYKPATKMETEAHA

Sequence of Carbonic anhydrase 1 (P00915 whole entry): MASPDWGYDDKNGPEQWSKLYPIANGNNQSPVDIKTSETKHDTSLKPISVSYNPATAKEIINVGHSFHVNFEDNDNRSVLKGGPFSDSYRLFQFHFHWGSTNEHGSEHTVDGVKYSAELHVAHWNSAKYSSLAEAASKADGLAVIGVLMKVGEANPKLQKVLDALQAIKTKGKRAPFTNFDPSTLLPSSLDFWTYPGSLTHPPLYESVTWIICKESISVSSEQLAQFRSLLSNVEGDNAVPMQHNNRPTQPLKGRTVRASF

| Compound | Ki (Carbonic anhydrase 9) [nM] | Ki (Carbonic anhydrase 1) [µM] | other results |
| --- | --- | --- | --- |
| Cc1ccc(S(=O)(=O)CCC(=O)Nc2ccc(S(N)(=O)=O)cc2)cc1 | 4.3 |  | Activity (HCT-116 [2]): 0.91%; IC50 (HCT-116 [1]): 570 nM; Activity (HCT-116 [3]): Active; Activity (HCT-116 [4]): Active; IC50 (MCF7): 0.67 µM; Activity (HCT-116 [5]): 21.45%; Activity (HCT-116 [6]): 9.63% |
| Cc1ccc(S(=O)(=O)CC(=O)Nc2ccc([N+](=O)[O-])cc2)cc1 | > 100000 | > 100 | Ki (Carbonic anhydrase 2): > 100 µM; Ki (Carbonic anhydrase 12): > 100 µM |
| CC(C(=O)Nc1ccc(S(N)(=O)=O)cc1)S(=O)(=O)c1ccccc1 (centres undefined) | 6.5 |  |  |
| Cc1ccc(S(=O)(=O)CC(=O)Nc2ccc(S(N)(=O)=O)cc2)cc1 | 15.9 |  |  |
| Cc1ccc(S(=O)(=O)C(C)C(=O)Nc2ccc(S(N)(=O)=O)cc2)cc1 (centres undefined) | 29.8 |  |  |

Second part, led by results:

| Ki (Carbonic anhydrase 9) [nM] | Ki (Carbonic anhydrase 1) [µM] | Compound | other results |
| --- | --- | --- | --- |
| 720 |  | Cc1ccc(S(=O)(=O)CC(=O)Nc2ccc(C(=O)O)cc2)cc1 | IC50 (HCT-116 [1]): 2230 nM; IC50 (MCF7): 3.41 µM |
| > 100000 | > 100 | CC(=O)c1ccc(NC(=O)CS(=O)(=O)c2ccc(C)cc2)cc1 | Ki (Carbonic anhydrase 2): > 100 µM; Ki (Carbonic anhydrase 12): > 100 µM |
| 29500 | > 100 | CCOC(=O)c1ccc(NC(=O)CS(=O)(=O)c2ccc(C)cc2)cc1 | Ki (Carbonic anhydrase 12): > 100 µM |
| 46.1 |  | NS(=O)(=O)c1ccc(NC(=O)CCS(=O)(=O)c2ccccc2)cc1 |  |
| 17200 | > 100 | CCOC(=O)c1ccc(NC(=O)CS(=O)(=O)c2ccccc2)cc1 | Ki (Carbonic anhydrase 2): > 100 µM |
| 930 | > 100 | O=C(CS(=O)(=O)c1ccccc1)Nc1ccc(C(=O)O)cc1 | IC50 (HCT-116 [1]): 11600 nM; IC50 (MCF7): 5.29 µM |
| 22.7 |  | NS(=O)(=O)c1ccc(NC(=O)CS(=O)(=O)c2ccccc2)cc1 |  |
